This experiment deals with hPHT1 (human peptide/histidine transporter 1, SLC15A4) (Homo sapiens, UniProt Q8N697, L14A/L15A/L318A/V319A). The experiment in a line: inhibition of MDP uptake in hPHT1mut cells at […], mock-subtracted. The following applies: read-out: % inhibition at 2 mM. It is filed as cell-based.
Chain of hPHT1 (human peptide/histidine transporter 1, SLC15A4) (Q8N697 whole entry L14A/L15A/L318A/V319A): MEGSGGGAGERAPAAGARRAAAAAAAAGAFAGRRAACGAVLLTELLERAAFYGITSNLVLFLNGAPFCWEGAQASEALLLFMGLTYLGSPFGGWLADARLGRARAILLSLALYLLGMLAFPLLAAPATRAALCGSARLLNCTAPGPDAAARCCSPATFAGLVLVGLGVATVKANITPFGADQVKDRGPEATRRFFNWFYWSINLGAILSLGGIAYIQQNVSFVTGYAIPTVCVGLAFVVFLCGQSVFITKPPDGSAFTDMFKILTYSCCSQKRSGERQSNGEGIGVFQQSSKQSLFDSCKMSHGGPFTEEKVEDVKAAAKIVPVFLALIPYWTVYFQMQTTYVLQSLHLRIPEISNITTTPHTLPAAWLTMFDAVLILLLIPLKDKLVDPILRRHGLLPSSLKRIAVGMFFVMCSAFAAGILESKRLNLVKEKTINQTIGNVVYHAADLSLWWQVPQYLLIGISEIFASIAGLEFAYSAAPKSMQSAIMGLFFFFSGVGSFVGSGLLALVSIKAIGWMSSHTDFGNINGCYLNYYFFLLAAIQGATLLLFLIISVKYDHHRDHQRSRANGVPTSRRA
As to `C[C@H](CS)C(=O)N1CCC[C@H]1C(=O)O` [captopril], the inhibition at 2000 µM fell in the range of 70 to 85%.

For the compound `CC1=C(C(=O)O)N2C(=O)[C@@H](NC(=O)[C@H](N)c3ccc(O)cc3)[C@H]2SC1` [cefadroxil], the inhibition at 2000 µM lay within 70 to 85%.

As for `CC1=C(C(=O)O)N2C(=O)[C@@H](NC(=O)[C@H](N)C3=CCC=CC3)[C@H]2SC1` [cephradine], the inhibition at 2000 µM fell in the range of 70 to 85%.

`NCCCC[C@H](N[C@@H](CCc1ccccc1)C(=O)O)C(=O)N1CCC[C@H]1C(=O)O` [lisinopril]: the inhibition at 2000 µM is 70 to 85%.

The values are drawn from paper PMC5826766 (Molecular pharmaceutics, 2018).
